Source: patent publication US8604034B2, “Substituted imidazo[1,2-α]pyrrolo[1,2-d]pyrazines for treating respiratory syncytial virus (RSV) infections” (Biota Scientific Management Pty Ltd., priority 2010, dated 2013)
Like-named read-outs stand apart in the source and are kept apart here.

System: RSV A2
Assay: RSV antiviral cytopathic effect (CPE) assay
Format: cell-based
Details: human respiratory syncytial virus, HEp-2, 120 h, HEp2 cells infected with RSV A2 (moi ~0.01), 5 days, MTT readout
Protocol: Compounds of the invention were tested for their antiviral activity against respiratory syncytial virus. Cytopathic effect (CPE) assays were performed essentially as described in the literature (see for example Watanabe et al, 1994, J. Virological Methods, 48:257). Serial dilutions of the test compounds were made in 96 well plates. HEp2 cells (1.0×10^4 cells/well) were infected with RSV at a low multiplicity of infection (e.g. RSV A2 at an moi of ˜0.01) and added to plates to assess antiviral activity. Uninfected HEp2 cells were used to assess compound cytotoxicity. Assays were incubated for 5 days at 37° C. in a 5% CO2 atmosphere. The extent of CPE was determined via metabolism of the vital dye 3-(4,5-dimethylthiaxol-2-yl)-2,5-diphenyltetrazolium bromide (MTT). MTT (1 mg/ml) was added to each well and plates incubated for 2 hours incubation at 37° C. Wells were aspirated, iso-propanol (200 μL) was added and absorbance values read at 540/650 nm. Compound concentrations that inhibited CPE by 50% (EC50) and developed cytotoxicity (CC50) were calculated using non-linear regression analysis.
Representative mean EC50 values obtained are also provided. In the inventors' experience, replicate EC50 values usually fall within three standard deviations of the mean.

[1] = read-out: Activity Range (RSV A2 EC50)
[2] = mean EC50, read-out: RSV A2 EC50

Row | SMILES | EC50 [1] [nM] | EC50 [2] [nM]
1 | O=C(NCCc1ccccc1)N1CCN2C(=O)c3cccn3CC12c1ccc(Cl)cc1 (stereo not drawn) [Compound 48] | 500 to 10000 | 1300
2 | O=C(c1conc1C(F)(F)F)N1CCN2C(=O)c3cccn3CC12c1ccc(Cl)cc1 (stereo not drawn) [Compound 49] | < 49 | 7.9
3 | Cc1nocc1C(=O)N1CCN2C(=O)c3cccn3CC12C1CCOCC1 (stereo not drawn) [Compound 50, 1-[(3-methyl-1,2-oxazol-4-yl)carbonyl]-10a-(tetrahydro-2H-pyran-4-yl)-2,3,10,10a-tetrahydro-1H,5H-imidazo[1,2-a]pyrrolo[1,2-d]pyrazin-5-onel] | 500 to 10000 | 1420
4 | COc1ccc(C23Cn4cccc4C(=O)N2CCN3C(=O)c2cnoc2)cc1 (stereo not drawn) [Compound 51] | 500 to 10000 | 700
5 | COc1ccc(C23Cn4cccc4C(=O)N2CCN3C(=O)c2conc2C(F)(F)F)cc1 (stereo not drawn) [Compound 52] | < 49 | 24
6 | COc1ccc(C23Cn4cccc4C(=O)N2CCN3C(=O)c2c(C)noc2C)cc1 (stereo not drawn) [Compound 53] | 100 to 499 | 260
7 | COc1ccc(C23Cn4cccc4C(=O)N2CCN3C(=O)c2ccoc2)cc1 (stereo not drawn) [Compound 54] | 500 to 10000 | 600
8 | COc1ccc(C23Cn4cccc4C(=O)N2CCN3C(=O)c2ocnc2C)cc1 (stereo not drawn) [Compound 55] | 500 to 10000 | 2500
9 | COc1ccc(C23Cn4cccc4C(=O)N2CCN3C(=O)c2snnc2C)cc1 (stereo not drawn) [Compound 56] | 100 to 499 | 370
10 | Cc1nocc1C(=O)N1CCN2C(=O)c3cccn3CC12c1ccc2c(c1)CCO2 (stereo not drawn) [Compound 57] | < 49 | 14
11 | COc1ccc(C23Cn4cccc4C(=O)N2CCN3C(=O)c2conc2C)cn1 (stereo not drawn) [Compound 58] | < 49 | 49
12 | COc1ccc(C23Cn4cccc4C(=O)N2CCN3C(=O)c2ncoc2C2CC2)cc1 (stereo not drawn) [Compound 59] | 100 to 499 | 180
13 | COc1ccc(C23Cn4cccc4C(=O)N2CCN3C(=O)c2cccn2C)cc1 (stereo not drawn) [Compound 60] | 500 to 10000 | 4700
14 | COc1ccc(C23Cn4cccc4C(=O)N2CCN3C(=O)c2ccnn2C)cc1 (stereo not drawn) [Compound 61] | 500 to 10000 | 980
15 | Cc1nocc1C(=O)OCc1ccc(C23Cn4cccc4C(=O)N2CCN3C(=O)c2conc2C)cc1 (stereo not drawn) [Compound 62, 4-{1-[(3-methyl-1,2-oxazol-4-yl)carbonyl]-5-oxo-2,3-dihydro-1H,5H-imidazo[1,2-a]pyrrolo[1,2-d]pyrazin-10a(10H)-yl}benzyl 3-methyl-1,2-oxazole-4-carboxylate] | < 49 | 48
16 | Cc1nocc1C(=O)N1CCN2C(=O)c3cc(-c4ccccn4)nn3CC12c1ccc(Cl)cc1 (stereo not drawn) [Compound 63, 10a-(4-chlorophenyl)-1-[(3-methyl-1,2-oxazol-4-yl)carbonyl]-7-(pyridin-2-yl)-2,3,10,10a-tetrahydro-1H,5H-imidazo[1,2-a]pyrazolo[1,5-d]pyrazin-5-one] | < 49 | 21
17 | Cc1nocc1C(=O)N1CCN2C(=O)c3cc(-c4ccccc4)nn3CC12c1ccc(Cl)cc1 (stereo not drawn) [Compound 64] | 500 to 10000 | 8600
18 | COc1ccc(C23Cn4cc(F)cc4C(=O)N2CCN3C(=O)c2conc2C)cc1 (stereo not drawn) [Compound 65] | 50 to 99 | 66
19 | COc1ccc(C23Cn4cc(F)cc4C(=O)N2CCN3C(=O)c2conc2C(F)(F)F)cc1 (stereo not drawn) [Compound 66] | < 49 | 15
20 | CCc1nocc1C(=O)N1CCN2C(=O)c3cccn3CC12c1ccc(OC)cc1 (stereo not drawn) [Compound 67] | < 49 | 17
21 | COc1ccc(C23Cn4cccc4C(=O)N2CCN3C(=O)c2conc2C(C)C)cc1 (stereo not drawn) [Compound 68] | 50 to 99 | 53
22 | Cc1nocc1C(=O)N1CCN2C(=O)c3cccn3CC12c1ccc(O)cc1 (stereo not drawn) [Compound 69] | 100 to 499 | 160
23 | Cc1nocc1C(=O)N1CCN2C(=O)c3cc(-c4ccco4)nn3CC12c1ccc(Cl)cc1 (stereo not drawn) [Compound 70] | < 49 | 3.6
24 | COc1ccc(C23Cn4cccc4C(=O)N2CCN3C(=O)c2cccnc2)cc1 (stereo not drawn) [Compound 71] | > 10000 | 11000

Row | SMILES | EC50 [1] [nM] | EC50 [2] [nM]
25 | Cc1nocc1C(=O)N1CCN2C(=O)c3ccnn3CC12c1ccc(Cl)cc1 (stereo not drawn) [Compound 72] | < 49 | 48
26 | Cc1nocc1C(=O)N1CCN2C(=O)c3cccn3CC12c1ccsc1 (stereo not drawn) [Compound 73] | 100 to 499 | 250
27 | Cc1nocc1C(=O)N1CCN2C(=O)c3cccn3CC12c1cccs1 (stereo not drawn) [Compound 74] | 100 to 499 | 220
28 | COc1ccc(C23Cn4cc(-c5nnn[nH]5)cc4C(=O)N2CCN3C(=O)c2conc2C)cc1 (stereo not drawn) [Compound 75, 10a-(4-methoxyphenyl)-1-[(3-methyl-1,2-oxazol-4-yl)carbonyl]-7-(1H-tetrazol-5-yl)-2,3,10,10a-tetrahydro-1H,5H-imidazo[1,2-a]pyrrolo[1,2-d]pyrazin-5-one] | > 10000 | –
29 | COCc1ccc(C23Cn4cccc4C(=O)N2CCN3C(=O)c2conc2C)cc1 (stereo not drawn) [Compound 76] | 50 to 99 | 67
30 | Cc1ccc([C@@]23Cn4cccc4C(=O)N2CCN3C(=O)c2conc2C)cn1 [Compound 77A, (10aS)-1-[(3-methyl-1,2-oxazol-4-yl)carbonyl]-10a-(6-methylpyridin-3-yl)-2,3,10,10a-tetrahydro-1H,5H-imidazo[1,2-a]pyrrolo[1,2-d]pyrazin-5-one] | 500 to 10000 | 7300
31 | Cc1ccc([C@]23Cn4cccc4C(=O)N2CCN3C(=O)c2conc2C)cn1 [Compound 77B, (10aR)-1-[(3-methyl-1,2-oxazol-4-yl)carbonyl]-10a-(6-methylpyridin-3-yl)-2,3,10,10a-tetrahydro-1H,5H-imidazo[1,2-a]pyrrolo[1,2-d]pyrazin-5-one] | < 49 | 19
32 | Cc1ccc(C23Cn4cccc4C(=O)N2CCN3C(=O)c2conc2C)cn1 (stereo not drawn) [Compound 77] | 50 to 99 | 56
33 | Cc1nocc1C(=O)N1CCN2C(=O)c3cccn3CC12c1ccc[n+]([O-])c1 (stereo not drawn) [Compound 78, 1-[(3-methyl-1,2-oxazol-4-yl)carbonyl]-10a-(1-oxidopyridin-3-yl)-2,3,10,10a-tetrahydro-1H,5H-imidazo[1,2-a]pyrrolo[1,2-d]pyrazin-5-one] | 500 to 10000 | 5800
34 | Cc1nocc1C(=O)N1CCN2C(=O)c3ccc(Cl)n3CC12c1ccc(F)cc1 (stereo not drawn) [Compound 80] | < 49 | 3.1
35 | Cc1nocc1C(=O)N1CCN2C(=O)c3ccc(Cl)n3CC12C1CCOCC1 (stereo not drawn) [Compound 81, 8-chloro-1-[(3-methyl-1,2-oxazol-4-yl)carbonyl]-10a-(tetrahydro-2H-pyran-4-yl)-2,3,10,10a-tetrahydro-1H,5H-imidazo[1,2-a]pyrrolo[1,2-d]pyrazin-5-one] | 50 to 99 | 67
36 | COc1ccc(C23Cn4cc(-c5cnn(C)c5)cc4C(=O)N2CCN3C(=O)c2conc2C)cc1 (stereo not drawn) [Compound 82] | < 49 | 48
37 | COc1ccc(C23Cn4cc(-c5cccnc5)cc4C(=O)N2CCN3C(=O)c2conc2C)cc1 (stereo not drawn) [Compound 83] | 50 to 99 | 120
38 | COc1ccc(C23Cn4cc(-c5ccncc5)cc4C(=O)N2CCN3C(=O)c2conc2C)cc1 (stereo not drawn) [Compound 84] | < 49 | 18
39 | O=C1c2cc(Br)cn2CC2(c3ccc(F)cc3)NCCN12 (stereo not drawn) [Compound 85] | > 10000 | –
40 | Cc1ccc(C23Cn4cc(Br)cc4C(=O)N2CCN3)cc1 (stereo not drawn) [Compound 86] | > 10000 | –
41 | COc1ccc(C23Cn4cc(-c5ccnn5C)cc4C(=O)N2CCN3C(=O)c2conc2C)cc1 (stereo not drawn) [Compound 87] | 50 to 99 | 500
42 | COc1ccc(C23Cn4cc(-c5cnn(C(C)C)c5)cc4C(=O)N2CCN3C(=O)c2conc2C)cc1 (stereo not drawn) [Compound 88] | 50 to 99 | 65
43 | COc1ccc(C23Cn4cc(C#N)cc4C(=O)N2CCN3C(=O)c2conc2C)cc1 (stereo not drawn) [Compound 89, 10a-(4-methoxyphenyl)-1-[(3-methyl-1,2-oxazol-4-yl)carbonyl]-5-oxo-2,3,10,10a-tetrahydro-1H,5H-imidazo[1,2-a]pyrrolo[1,2-d]pyrazine-7-carbonitrile] | 500 to 10000 | 1600
44 | COc1ccc(C23Cn4cc(-c5cncnc5)cc4C(=O)N2CCN3C(=O)c2conc2C)cc1 (stereo not drawn) [Compound 90] | 500 to 10000 | 1300
45 | COc1ccc(C23Cn4cc(-c5cn(C)nc5C)cc4C(=O)N2CCN3C(=O)c2conc2C)cc1 (stereo not drawn) [Compound 91] | 100 to 499 | 140
46 | COc1ccc(C23Cn4cc(-c5cnccc5C)cc4C(=O)N2CCN3C(=O)c2conc2C)cc1 (stereo not drawn) [Compound 92] | > 10000 | –
47 | Cc1ccc(C23Cn4cc(-c5ccccn5)cc4C(=O)N2CCN3C(=O)c2conc2C)cc1 (stereo not drawn) [Compound 93, 1-[(3-methyl-1,2-oxazol-4-yl)carbonyl]-10a-(4-methylphenyl)-7-(pyridin-2-yl)-2,3,10,10a-tetrahydro-1H,5H-imidazo[1,2-a]pyrrolo[1,2-d]pyrazin-5-one] | < 49 | 8.2
